Key:
[1] = tested on: chorioallantoic membrane (CAM); assay: Chorioallantoic membrane (CAM) assay, VEGF-derived angiogenesis; format: in vivo, chick
Description: To examine angiogenesis inhibiting effects in vivo, CAM assay was performed (Nguyen Metal., Microvascular Res., 47, pp 31-40, 1994). Hen's fertile eggs were incubated at a temperature of 37° C. and in relative humidity 55%, and on the 10th day after the incubation, an air sac site was punched by using a hypodermic needle (Greencross Medical Science Corp, Korea) to form a first hole, and then, a planar site of the fertile egg where a window was to be formed was punched to form a second hole. Air was removed through the first pore of the air sac site to allow the chorioallantoic membrane (CAM) to be separated from the shell of the fertile egg, and this site was cut by using a grinding wheel (Multipro 395JA, Dremel, Mexico) to form a window. […] Through the window, the filter disc was placed on blood vessels, which were then treated with the compounds each dissolved in dimethylsulfoxide (DMSO) and diluted with phosphate buffer solution (PBS) at various concentrations. 3 days after the treatment with the compounds, the CAM site with the filter disc placed thereon was separated, and then washed with a phosphate buffer solution, and an image thereof was obtained by using a stereomicroscope (Stemi SV6 stereomicroscope, Carl Zeiss, Germany) and image-Pro Plus software (Media Cybernetics; Silver Spring, Md., U.S.A.) to count the number of blood vessel branches, and the obtained results were assayed.

A549 lung cancer cells = assay: Oncogenesis-derived angiogenesis and tumor growth on CAM inoculated with A549 lung cancer cells; format: in vivo, chick; settings: A549 cells 1.5×10^6 cell/CAM, various concentrations, five days after inoculation; FIG. 4
Description: Hen's fertile eggs were incubated, and on the 9th day, a window was formed in the same manner as in Experimental Example 1, and instead of a disc, A549 lung cancer cells were mixed with matrigel at a ratio of 1:1, and then the cells were treated with Compounds 6a and 6i and inoculated at a concentration of 1.5×10^6 cell/CAM. Five days after the inoculation, the CAM site where tumors developed was separated and washed with a phosphate buffer solution, and then, an image thereof was obtained by using a stereomicroscope (Stemi SV6 stereomicroscope, Carl Zeiss, Germany) and Image-Pro Plus software (Media Cybernetics; Silver Spring, Md., U.S.A.) to count the number of blood vessel branches, and the results were assayed.

HUVEC cells = assay: VEGF-derived ROS scavenging ability (DCF-DA fluorescence); format: cell-based; settings: HUVEC pretreated 3 hours, then VEGF 15 minutes, compared to VEGF, FIG. 5
Description: (§1) DCF-DA (2′,7′-dichlorofluorescein diacetate) was used to measure a VEGF-derived ROS scavenging ability in HUVEC cells. When ROS exists in cells, DCF-DA is oxidized into fluorescent DCF, thereby emitting green fluorescent light. 1×10^5 concentration of HUVEC was spread onto a 0.2% gelatin coated 8-well plate, and then incubated for 24 hours. The cells were pretreated with Compounds 6a or 6i for 3 hours and then, treated with VEGF for 15 minutes, and then, washed three times with PBS (pH 7.4), and then, 10 μM of DCF-DA was added to EBM-2 medium, which was then placed in dark condition for 30 minutes. Then, the cells were washed three times with PBS, and a degree of intracellular fluorescence was measured by using a fluorescent microscope.

[2] = tested on: ARPE-19 (adult retinal pigment epithelium-19) cell line; assay: Macular degeneration risk factor-derived ROS scavenging ability; format: cell-based; settings: compared to a control
Description: as §1
The same experiment as used in Experimental Example 3 was performed, except that ARPE-19 (adult retinal pigment epithelium-19) cell line was treated with 4-hydroxynonenal (4-HNE) or angiotensin II (Ang II), which are macular degeneration risk factors, to identify ROS scavenging ability of Compound 6a.

Male Balb/c mice = assay: Toxicity test, single oral administration; format: in vivo; settings: once, 0.5 g/kg, 1 g/kg and 2 g/kg in 0.5% methylcellose, 7 days
Description: Male Balb/c mice were orally administered once with Compound 6a suspended in a 0.5% methylcellose solution, in a dosage of each of 0.5 g/kg, 1 g/kg, and 2 g/kg, and then, for 7 days, the survival rate and body weight of the mice were measured.
After the administration, the death, clinical symptoms, and body weight change of the mice were analyzed, and a hematological examination and a blood biochemical examination were performed. Then, the autopsy of the mice was performed, and abnormality of abdominal cavity organs and thoracic cavity organs was examined.

SMILES: Cc1nc(N)c(C)c(C)c1O [Compound 6a, 6-amino-2,4,5-trimethylpyridin-3-ol]
- inhibition in vivo at 0.1 µM ([1]; Gallus gallus, 72 h, VEGF (50 ng/CAM) + 0.15 ng/CAM, 0.1 μM, 3 days after treatment, read-out: Inhibition ratio): 64 ± 8.8%
- inhibition in vivo at 1 µM ([1]; Gallus gallus, 72 h, VEGF (50 ng/CAM) + 1.5 ng/CAM, 1 μM, 3 days after treatment, read-out: Inhibition ratio): 76.3 ± 5.2%
- IC50 ([1]; Gallus gallus, CAM treated with various concentrations, FIG. 3, read-out: IC50 with respect to angiogenesis inhibition): 2 nM
- Number of blood vessel branches/main blood vessel ([1]; VEGF (50 ng/CAM) + 0.15 ng/CAM, 0.1 μM, 3 days after treatment): 28 ± 3.3^8
- Number of blood vessel branches/main blood vessel ([1]; VEGF (50 ng/CAM) + 1.5 ng/CAM, 1 μM, 3 days after treatment): 23.3 ± 2.0^8
- angiogenesis inhibiting effects ([1]; VEGF-treated CAM, summary of Table 1, 6a compared with SU4312, batimastat and α-tocopherol): excellent angiogenesis inhibiting effects even at low concentration
- oncogenesis-derived angiogenesis (A549 lung cancer cells): inhibited
- tumor growth (A549 lung cancer cells): inhibited
- degree of intracellular fluorescence (VEGF-derived ROS) (HUVEC cells): substantial decrease
- degree of intracellular fluorescence (ROS), 4-hydroxynonenal (4-HNE) ([2]; ARPE-19 treated with 4-HNE, FIG. 7): substantially decreased
- degree of intracellular fluorescence (ROS), angiotensin II (Ang II) ([2]; ARPE-19 treated with Ang II, FIG. 6): substantially decreased
- body weight change, blood examination, blood biochemical examination, and autopsy results (Male Balb/c mice): no toxicity change
- clinical symptoms (Male Balb/c mice): did not have distinguishing clinical symptoms
- death (Male Balb/c mice): did not die
